The results in this text go back to patent US11952365B2, “Anti-viral compounds” (Aligos Therapeutics, Inc., priority 2020, dated 2024).

Where two headings read alike, the source gives them in different places.

For one series, the target named is HRV3C (Human rhinovirus 14, UniProt P03303). Put plainly: HRV3C protease assay (duplex, SAMDI-MS). The format is biochemical, HRV. The conditions noted are these: 30 mins preincubation. Summed up:
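HRV3C was preincubated 30 min with compound alongside 3CLpro at ambient temperature, then two biotinylated peptide substrates were added for 30 min. Quenching used 0.5% formic acid (final). Cleaved product was captured on neutravidin SAMDI arrays and quantified by MALDI-TOF as product/internal-standard AUC ratio; IC50 from four-parameter fit.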

Series [1] in a line: in vitro. To be noted: human.
Series [2] has as its system SARS-CoV-2-GHB-03021/2020. Put plainly: microbe, parasite or virus in culture. The format is cell-based. The conditions noted are these: Severe acute respiratory syndrome coronavirus 2, Vero C1008, 96 h; read-out: VeroE6 + CP (EC50).
Series [3] relates to human beta-coronavirus OC43. Put plainly: microbe, parasite or virus in culture. The format is cell-based. To be noted: Betacoronavirus 1, OC43, HeLa, 144 h.
The nature of series [4]: in vitro. To be noted: African green monkey, VeroE6 + CP (CC50), Vero E6-eGFP cells with CP-100356, absence of virus, MTS.
The test system of series [5] is SARS-CoV-2-GHB-03021/2020. Briefly: SARS-CoV-2 Infection Model in Huh7 Cells. Format: cell-based. To be noted: Severe acute respiratory syndrome coronavirus 2, Huh-7, 96 h, SARS-CoV-2, day 4 p.i., MTS.
A further series addresses 3CLpro (Severe acute respiratory syndrome coronavirus 2, UniProt P0DTD1). Put plainly: SARS-CoV-2 3CLpro protease assay (duplex, SAMDI-MS). The format is biochemical. Set-up: For the duplex assay, 3CLpro and HRV3C was added. To be noted: 3CLpro, 30 mins preincubation, class symbols; read-out: SARS-Cov-2 IC50.
A short description of series [6]: Cytotoxicity plates without OC43 virus (cell-titer-glo). The conditions noted are these: human; HeLa cells without OC43 virus, class symbols. The format is cell-based, human. Summed up:
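Run as a virus-free counterpart of the OC43 cytopathic-effect assay. Attached HeLa cells received compound dilutions in EMEM with 2% FBS and were kept 6 days at 33 °C. Cell viability was then measured by CellTiter-Glo luminescence.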

Another series addresses T1, human cathepsin L (Homo sapiens, UniProt P07711).
T1 construct: purchased R&D Systems
Briefly: cathepsin L assay. The format is biochemical. To be noted: 10 pM human cathepsin L, Z-FR-AMC 2 μM, class symbols. Put shortly:
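Reactions began by adding 2 μM (final) Z-FR-AMC substrate to 10 pM human cathepsin L that had been preincubated 30 min with inhibitor. Kinetic AMC fluorescence at 355/460 nm over 30 min at 2-min intervals; four-parameter fitting gave IC50 values.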

The mark [7] stands for this setting: HRV3C, class symbols, read-out: HRV IC50.
[8] abbreviates: OC43 in HeLa cells, 6 days at 33° C., class symbols, read-out: EC50.
The mark [9] stands for this setting: OC43 in HeLa cells, 6 days at 33° C., bound, read-out: EC50.
Setting [10] is: HRV3C, bound, read-out: HRV IC50.

For `Cc1ccc2[nH]c(C(=O)N3CCC4(CC4)C[C@H]3C(=O)N[C@@H](C[C@@H]3CCNC3=O)C(=O)C(=O)NC3CC3)cc2c1` [Compound 146], the IC50 was 2 to 20 µM on HRV3C (setting [7]), < 0.02 µM on 3CLpro and 1 to 10 µM on human cathepsin L. Further, the CC50 was > 10 µM in “in vitro [1]” and > 50 µM in “in vitro [4]” (numeric bounds). Besides, the values for the EC50 in series [2], in series [3] (setting [8]) and in series [5] (class symbols) were 1 to 10 µM, 0.1 to 1 µM and 1 to 10 µM, respectively. Further, in [6], the CC50 at 6 days is > 10 µM.
As to `COc1cccc2[nH]c(C(=O)N3C[C@@H]4CCC[C@@H]4[C@H]3C(=O)N[C@@H](CC3CC(C)(C)NC3=O)C(=O)CO)cc12` (relative stereo) [Compound 70_1, (1S,3aR,6aS)—N—((S)-1-((R*)-5,5-dimethyl-2-oxopyrrolidin-3-yl)-4-hydroxy-3-oxobutan-2-yl)-2-(4-methoxy-1H-indole-2-carbonyl)octahydrocyclopenta[c]pyrrole-1-carboxamide], the IC50 was 0.2 to 2 µM on HRV3C (setting [7]), < 0.02 µM at 3CLpro and ≥ 10 µM against human cathepsin L. Moreover, the CC50 in the series “in vitro [1]” and in “in vitro [4]” (class symbols) was > 10 µM each time. In addition, the values for the EC50 in series [2], in series [3] (setting [8]) and in series [5] (class symbols) were < 1 µM, 0.1 to 1 µM and 1 to 10 µM, respectively. Also, in [6], the CC50 at 6 days is > 10 µM.
As to `O=C1NCC[C@H]1C[C@H](NC(=O)[C@@H]1[C@H]2CCC[C@H]2CN1C(=O)c1cc(S(=O)(=O)c2ccccc2)c[nH]1)C(=O)CO` [Compound 82, (1S,3aR,6aS)-2-[4-(benzenesulfonyl)-1H-pyrrole-2-carbonyl]-N-[(2S)-4-hydroxy-3-oxo-1-[(3S)-2-oxopyrrolidin-3-yl]butan-2-yl]-hexahydro-1H-cyclopenta[c]pyrrole-1-carboxamide], the results for the IC50 on HRV3C (setting [7]), at 3CLpro and against human cathepsin L were 2 to 20 µM, 0.02 to 0.2 µM and ≥ 10 µM, respectively. Moreover, the CC50 in “in vitro [1]” and in the series “in vitro [4]” (numeric bounds) was > 50 µM throughout. In addition, the EC50 in series [2] was 10 to 100 µM; in [3] (setting [9]) it was > 10 µM; in [5] (numeric bounds), > 50 µM. Also, the CC50 at 6 days in series [6] is > 10 µM.
`O=C1NCC[C@H]1C[C@H](NC(=O)[C@@H]1[C@H]2CCC[C@H]2CN1C(=O)c1cc2c(C(F)(F)F)cccc2[nH]1)C(=O)CO` [Compound 63, (1S,3aR,6aS)—N-[(2S)-4-hydroxy-3-oxo-1-[(3S)-2-oxopyrrolidin-3-yl]butan-2-yl]-2-[4-(trifluoromethyl)-1H-indole-2-carbonyl]-hexahydro-1H-cyclopenta[c]pyrrole-1-carboxamide]: the IC50 on HRV3C (setting [10]) was > 10 µM; at 3CLpro, 0.02 to 0.2 µM; on human cathepsin L it was ≥ 10 µM. The CC50 in the series “in vitro [1]” and in “in vitro [4]” (class symbols) was > 10 µM throughout. Further, the EC50 is < 1 µM in [2], 0.1 to 1 µM in series [3] (setting [8]) and < 1 µM in series [5] (class symbols). Besides, in series [6], the CC50 at 6 days was > 10 µM.
As for `COc1cccc2[nH]c(C(=O)N3C[C@H](C(F)(F)F)C[C@H]3C(=O)N[C@@H](C[C@@H]3CCCNC3=O)C(=O)COCc3ccccc3)cc12` [Compound 45A], the IC50 at HRV3C (setting [7]) is 2 to 20 µM; at 3CLpro, 0.02 to 0.2 µM; on human cathepsin L, ≥ 10 µM. Moreover, the CC50 in the series “in vitro [1]” and in “in vitro [4]” (class symbols) was > 10 µM each time. The EC50 lay within 1 to 10 µM in series [2], 0.1 to 1 µM in series [3] (setting [8]) and 1 to 10 µM in series [5] (class symbols). Moreover, in [6], the CC50 at 6 days was > 10 µM.
With `O=C1NCC[C@H]1C[C@H](NC(=O)[C@@H]1[C@H]2CCC[C@H]2CN1C(=O)c1cc2c(Cl)cc(-c3ccccc3)cc2[nH]1)C(=O)CO` [Compound 120, (1S,3aR,6aS)-2-(4-chloro-6-phenyl-1H-indole-2-carbonyl)-N-[(2S)-4-hydroxy-3-oxo-1-[(3S)-2-oxopyrrolidin-3-yl]butan-2-yl]-hexahydro-1H-cyclopenta[c]pyrrole-1-carboxamide], the IC50 on HRV3C (setting [10]) is > 10 µM; at 3CLpro, < 0.02 µM; against human cathepsin L, ≥ 10 µM. Also, the figures for the CC50 in “in vitro [1]” and in the series “in vitro [4]” (class symbols) were 1 to 10 µM and > 10 µM, respectively. The EC50 is < 1 µM in series [2], < 0.1 µM in series [3] (setting [8]) and < 1 µM in series [5] (class symbols). Also, in [6], the CC50 at 6 days is > 10 µM.
For `COc1cccc2[nH]c(C(=O)N3C[C@H]4[C@@H]([C@H]3C(=O)N[C@@H](C[C@@H]3CCCNC3=O)C(=O)COCc3ccccc3)C4(C)C)cc12` [Compound 49A, (1R,2S,5S)—N-[(2S)-4-(benzyloxy)-3-oxo-1-[(3S)-2-oxopiperidin-3-yl]butan-2-yl]-3-(4-methoxy-1H-indole-2-carbonyl)-6,6-dimethyl-3-azabicyclo[3.1.0]hexane-2-carboxamide], the IC50 was > 10 µM at HRV3C (setting [10]), 0.02 to 0.2 µM at 3CLpro and ≥ 10 µM against human cathepsin L. In addition, the CC50 in “in vitro [1]” and in the series “in vitro [4]” (class symbols) was > 10 µM in each case. Also, the EC50 is 1 to 10 µM in [2], 0.1 to 1 µM in [3] (setting [8]) and 1 to 10 µM in series [5] (class symbols). The CC50 at 6 days in [6] is > 10 µM.
As for `O=C1NCC[C@H]1C[C@H](NC(=O)[C@@H]1[C@H]2CCC[C@H]2CN1C(=O)c1cc2c(Cl)c(F)cc(F)c2[nH]1)C(=O)CO` [Compound 143, (1S,3aR,6aS)-2-(4-chloro-5,7-difluoro-1H-indole-2-carbonyl)-N-[(2S)-4-hydroxy-3-oxo-1-[(3S)-2-oxopyrrolidin-3-yl]butan-2-yl]-hexahydro-1H-cyclopenta[c]pyrrole-1-carboxamide], the IC50 was > 10 µM on HRV3C (HRV IC50, HRV3C, bound); 0.02 to 0.2 µM on 3CLpro; ≥ 10 µM at human cathepsin L. For the same molecule, the CC50 in the series “in vitro [1]” is > 10 µM; in the series “in vitro [4]” (numeric bounds), > 50 µM. Also, the results for the EC50 in [2], in series [3] and in series [5] (class symbols) were < 1 µM, 0.1 to 1 µM and < 1 µM, respectively. For the same molecule, in [6], the CC50 at 6 days was > 10 µM.
`O=C1NCC[C@H]1C[C@H](NC(=O)[C@@H]1[C@H]2CCC[C@H]2CN1C(=O)c1cc2c(Cl)cc(Oc3ccccc3)cc2[nH]1)C(=O)CO` [Compound 129, (1S,3aR,6aS)-2-(4-chloro-6-phenoxy-1H-indole-2-carbonyl)-N-[(2S)-4-hydroxy-3-oxo-1-[(3S)-2-oxopyrrolidin-3-yl]butan-2-yl]-hexahydro-1H-cyclopenta[c]pyrrole-1-carboxamide]: the IC50 on HRV3C (setting [10]) is > 10 µM; on 3CLpro it was < 0.02 µM; at human cathepsin L, ≥ 10 µM. The CC50 in “in vitro [1]” and in the series “in vitro [4]” (class symbols) was > 10 µM throughout. The results for the EC50 in [2], in [3] (setting [8]) and in series [5] (class symbols) were < 1 µM, < 0.1 µM and < 1 µM, respectively. Also, the CC50 at 6 days in [6] was > 10 µM.
Consider `O=C(NCc1ccccc1)C(=O)[C@H](C[C@@H]1CCNC1=O)NC(=O)[C@@H]1C[C@]2(CN1C(=O)c1cc3ccccc3[nH]1)CC2(F)F` [Compound 22], for which the figures for the half-maximal inhibitory concentration (IC50) on HRV3C (setting [7]), on 3CLpro and on human cathepsin L were 2 to 20 µM, 0.2 to 2 µM and 0.1 to 1 µM, respectively. The CC50 in “in vitro [1]” and in “in vitro [4]” (numeric bounds) was > 100 µM throughout. Further, the EC50 in series [2] was in the range of 10 to 100 µM; in series [3] (setting [8]), 1 to 10 µM; in series [5] (class symbols), 1 to 10 µM. Moreover, in series [6], the CC50 at 6 days was > 10 µM.
As for `COc1cccc2[nH]c(C(=O)N3C[C@@H]4CCC[C@@H]4[C@H]3C(=O)N[C@@H](C[C@@H]3CCNC3=O)C(=O)C(=O)N[C@@H]3CCOC3)cc12` [Compound 105], the IC50 is 0.2 to 2 µM at HRV3C (setting [7]), 0.02 to 0.2 µM on 3CLpro and ≥ 10 µM against human cathepsin L. Moreover, the CC50 in the series “in vitro [1]” and in the series “in vitro [4]” (numeric bounds) was > 100 µM each time. The EC50 was 10 to 100 µM in series [2], > 10 µM in series [3] (setting [9]) and 10 to 100 µM in series [5] (class symbols). In series [6], the CC50 at 6 days is > 10 µM.

Usually IC50 stands for the concentration that gives 50% inhibition. One may read the EC50 as the concentration giving half of the maximal effect.
